Legend:
Ras farnesyl transferase = target: T1, Ras farnesyl transferase (Homo sapiens, UniProt P49354+P49356); assay: Ras farnesyl transferase inhibiting activity (filter-binding, tritium-farnesylpyrophosphate, Ras-CVLS substrate); format: biochemical; details: recombinant Ras farnesyl transferase, 30 minutes at 37° C., read-out: Ftase IC50
T1 construct: made in house

[1] = tested on: intracellular Ras farnesyl transferase, Rat2 cell line; assay: Intracellular Ras farnesyl transferase inhibiting activity in transformed Rat2 cells (35S-methionine labelling, Y13-259 immunoprecipitation, SDS-PAGE); format: cell-based; details: Rattus norvegicus; transformed Rat2 fibroblast cell line; concentration inhibiting 50% of farnesyl binding of Ras protein; read-out: Ftase CIC50
Summary of the method: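 Rat2 fibroblasts transformed with H-Ras, or with H-Ras carrying the K-Ras polybasic lysine C-terminus, were treated with compound (1% DMSO). After 4 h they were labelled for 20 h with 150 μCi/ml 35S-methionine. Lysates were immunoprecipitated with Y13-259, run on 13.5% SDS-PAGE and autoradiographed; CIC50 is the concentration halving farnesylated versus unfarnesylated Ras band intensity.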

[2] = target: T2, Geranylgeranyl transferase (Bos taurus, UniProt P29702+Q5EAD5); assay: Geranylgeranyl transferase inhibiting activity (geranylgeranyl pyrophosphate, Ras-CVIL substrate); format: biochemical; details: geranylgeranyl transferase purified from bovine brain, read-out: GGtase IC50
T2 construct: Geranylgeranyl transferase was purified from bovine brain; from tissue; host or cells: bovine brain
Summary of the method: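 Bovine-brain-purified enzyme run as in the farnesyl transferase assay, with geranylgeranyl pyrophosphate and Ras-CVIL substrate protein under similar reaction conditions.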

Structure (SMILES)	IC50 (Ras farnesyl transferase)	IC50 [2]	IC50 [1]
CC1(c2cccc3ccccc23)C(=O)N(CCCn2ccnc2)C(=O)N1Cc1cccc(OC(F)(F)F)c1 (stereo not drawn) [Compound 23, 1-(3-trifluoromethoxy-benzyl)-3-(3-imidazol-1-yl-propyl)-5-methyl-5-naphthalen-1-yl-imidazolidin-2,4-dione]	3 µM	> 10 µM	< 20 µM
CC1(c2cccc3ccccc23)C(=O)N(CCCn2ccnc2)C(=O)N1Cc1ccccc1 (stereo not drawn) [Compound 16, 1-benzyl-3-(3-imidazol-1-yl-propyl)-5-methyl-5-naphthalen-1-yl-imidazolidin-2,4-dione]	2.5 µM	> 10 µM	< 20 µM
CC1(c2cccc3ccccc23)NC(=O)N(Cc2cncn2Cc2ccc(C#N)cc2)C1=O (stereo not drawn) [Compound 59, 4-[5-(4-methyl-4-naphthalen-1-yl-2,5-dioxo-imidazolidin-1-ylmethyl)-imidazol-1-ylmethyl]-benzonitrile]	0.44 µM	> 10 µM	< 20 µM
CC1(c2cccc3ccccc23)NC(=O)N(CCCc2cncn2Cc2ccc(C#N)cc2)C1=O (stereo not drawn) [Compound 45, 4-{5-[3-(4-methyl-4-naphthalen-1-yl-2,5-dioxo-imidazolidin-1-yl)-propyl]-imidazol-1-ylmethyl}benzonitrile]	5.5 µM	> 10 µM	< 20 µM
COc1ccc(C(=O)N2C(=O)N(CCCn3ccnc3)C(=O)C2(C)c2cccc3ccccc23)cc1 (stereo not drawn) [Compound 64, 3-(3-imidazol-1-yl-propyl)-1-(4-methoxy-benzoyl)-5-methyl-5-naphthalen-1-yl-imidazolidin-2,4-dione]	0.7 µM	> 10 µM	< 20 µM
CC1(c2cccc3ccccc23)C(=O)N(CCCn2ccnc2)C(=O)N1Cc1ccc(Oc2ccccc2)cc1 (stereo not drawn) [Compound 24, 3-(3-imidazol-1-yl-propyl)-5-methyl-5-naphthalen-1-yl-1-(4-phenoxy-benzyl)-imidazolidin-2,4-dione]	0.75 µM	> 10 µM	< 20 µM
COC(=O)c1ccc(CN2C(=O)N(CCCn3ccnc3)C(=O)C2(C)c2cccc3ccccc23)cc1 (stereo not drawn) [Compound 38, 4-[3-(3-imidazol-1-yl-propyl)-5-methyl-5-naphthalen-1-yl-2,4-dioxo-imidazolidin-1-ylmethyl]-benzoic acid methyl ester]	0.25 µM	> 10 µM	< 20 µM
CC1(c2cccc3ccccc23)C(=O)N(CCCn2ccnc2)C(=O)N1Cc1cccc(Oc2ccccc2)c1 (stereo not drawn) [Compound 25, 3-(3-imidazol-1-yl-propyl)-5-methyl-5-naphthalen-1-yl-1-(3-phenoxy-benzyl)-imidazolidin-2,4-dione]	0.72 µM	> 10 µM	< 20 µM
CC1(c2cccc3ccccc23)C(=O)N(CCCn2ccnc2)C(=O)N1Cc1ccc(S(C)(=O)=O)cc1 (stereo not drawn) [Compound 28, 3-(3-imidazol-1-yl-propyl)-1-(4-methylsulfonyl-benzyl)-5-methyl-5-naphthalen-1-yl-imidazolidin-2,4-dione]	1.1 µM	> 10 µM	< 20 µM
CCOC(=O)CN1C(=O)N(CCCc2cncn2Cc2ccc(Br)cc2)C(=O)C1(C)c1cccc2ccccc12 (stereo not drawn) [Compound 70, (3-{3-[3-(4-bromo-benzyl)-3H-imidazol-4-yl]-propyl}-5-methyl-5-naphthalen-1-yl-2,4-dioxo-imidazolidin-1-yl)-acetic acid ethyl ester]	5 µM	> 10 µM	< 20 µM
CC1(c2cccc3ccccc23)C(=O)N(CCCn2ccnc2)C(=O)N1Cc1cccc(Cl)c1 (stereo not drawn) [Compound 19, 1-(3-chloro-benzyl)-3-(3-imidazol-1-yl-propyl)-5-methyl-5-naphthalen-1-yl-imidazolidin-2,4-dione]	0.24 µM	> 10 µM	< 20 µM
CC1(c2cccc3ccccc23)C(=O)N(CCCn2ccnc2)C(=O)N1Cc1ccccc1C#N (stereo not drawn) [Compound 31, 2-[3-(3-imidazol-1-yl-propyl)-5-methyl-5-naphthalen-1-yl-2,4-dioxo-imidazolidin-1-ylmethyl]-benzonitrile]	0.9 µM	> 10 µM	< 20 µM

Now those with a lower IC50 (Ras farnesyl transferase), led by results:

IC50 (Ras farnesyl transferase)	IC50 [2]	Structure (SMILES)	IC50 [1]
0.21 µM	> 10 µM	CSCc1ccc(CN2C(=O)N(CCCn3ccnc3)C(=O)C2(C)c2cccc3ccccc23)cc1 (stereo not drawn) [Compound 27, 3-(3-imidazol-1-yl-propyl)-1-(4-methylsulfanylmethyl-benzyl)-5-methyl-5-naphthalen-1-yl-imidazolidin-2,4-dione]	< 20 µM
0.2 µM	> 10 µM	COC(=O)[C@H](CCSC)NC(=O)CC1C(=O)N(Cc2cncn2Cc2ccc(C#N)cc2)C(=O)N1Cc1cccc2ccccc12 (stereo partly drawn) [Compound 85, (2S)-(2-{1-[3-(4-cyano-benzyl)-3H-imidazol-4-ylmethyl]-3-naphthalen-1-ylmethyl-2,5-dioxo-imidazolidin-4-yl}-acetamino)-4-methylsulfanyl-butyric acid methyl ester]	< 50 µM
0.2 µM	> 10 µM	CC1(c2cccc3ccccc23)C(=O)N(CCCn2ccnc2)C(=O)N1C(=O)Nc1cccc(C#N)c1 (stereo not drawn) [Compound 66, 3-(3-imidazol-1-yl-propyl)-5-methyl-5-naphthalen-1-yl-2,4-dioxo-imidazolidin-1-carboxylic acid (3-cyano-phenyl)-amide]	< 20 µM
0.18 µM	> 10 µM	COC(=O)C(CCSC)NC(=O)CN1C(=O)N(Cc2cncn2Cc2ccc(C#N)cc2)C(=O)C1(C)c1cccc2ccccc12 (stereo not drawn) [Compound 7, 2-(2-{3-[3-(4-cyano-benzyl)-imidazol-4-yl-methyl]-5-methyl-5-naphthalen-1-yl-2,4-dioxo-imidazolidin-1-yl}-acetylamino)-4-methylsulfanyl-butyric acid methyl ester]	< 20 µM
0.16 µM	> 10 µM	CN1C(=O)N(Cc2cncn2Cc2ccc(C#N)cc2)C(=O)C1(C)c1cccc2ccccc12 (stereo not drawn) [Compound 60, 4-[5-(3-methyl-4-methyl-4-naphthalen-1-yl-2,5-dioxo-imidazolidin-1-ylmethyl)-imidazol-1-ylmethyl]-benzonitrile]	< 20 µM
0.15 µM	> 10 µM	CN(C)CCNC(=O)CC1C(=O)N(Cc2cncn2Cc2ccc(C#N)cc2)C(=O)N1Cc1cccc2ccccc12 (stereo not drawn) [Compound 82, 2-{1-[3-(4-cyano-benzyl)-3H-imidazol-4-ylmethyl]-3-naphthalen-1-ylmethyl-2,5-dioxo-imidazolidin-4-yl}-N-(2-(N,N-dimethylamino)-ethyl)-acetamide]	< 20 µM
0.08 µM	> 10 µM	CSc1ccc(CN2C(=O)N(CCCn3ccnc3)C(=O)C2(C)c2cccc3ccccc23)cc1C#N (stereo not drawn) [Compound 29, 5-[3-(3-imidazol-1-yl-propyl)-5-methyl-5-naphthalen-1-yl-2,4-dioxo-imidazolidin-1-ylmethyl]-2-methylsulfanyl-benzonitrile]	< 20 µM
0.061 µM	> 10 µM	CSCCC(NC(=O)CN1C(=O)N(Cc2cnc[nH]2)C(=O)C1(C)c1cccc2ccccc12)C(=O)O (stereo not drawn) [Compound 6, 2-{2-[3-(3H-imidazol-4-yl-methyl)-5-methyl-5-naphthalen-1-yl-2,4-dioxo-imidazolidin-1-yl]-acetylamino}-4-methylsulfanyl-butyric acid]	7.3 µM
0.05 µM	> 10 µM	CSCC[C@H](NC(=O)CC1C(=O)N(Cc2cncn2Cc2ccc(C#N)cc2)C(=O)N1Cc1cccc2ccccc12)C(=O)O (stereo partly drawn) [Compound 86, (2S)-(2-{1-[3-(4-cyano-benzyl)-3H-imidazol-ylmethyl]-3-naphthalen-1-ylmethyl-2,5-dioxo-imidazolidin-4-yl}-acetamino)4-methylsulfanyl-butyric acid]	< 10 µM
0.019 µM	> 10 µM	CCOC(=O)CN1C(=O)N(CCCc2cncn2Cc2ccc(C#N)cc2)C(=O)C1(C)c1cccc2ccccc12 (stereo not drawn) [Compound 51, (3-{3-[3-(4-cyanobenzyl)-3H-imidazol-4-yl]-propyl}-5-methyl-5-naphthalen-1-yl-2,4-dioxo-imidazolidin-1-yl)-acetic acid ethyl ester]	< 20 µM
0.018 µM	> 10 µM	CCN1C(=O)N(CCCc2cncn2Cc2ccc(C#N)cc2)C(=O)C1(C)c1cccc2ccccc12 (stereo not drawn) [Compound 47, 4-{5-[3-(3-ethyl-4-methyl-4-naphthalen-1-yl-2,5-dioxo-imidazolidin-1-yl)-propyl]-imidazol-1-ylmethyl}benzonitrile]	< 20 µM
0.014 µM	> 10 µM	CSCCC(NC(=O)CN1C(=O)N(CCCc2cncn2Cc2ccc(C#N)cc2)C(=O)C1(C)c1cccc2ccccc12)C(=O)O (stereo not drawn) [Compound 58, 2-[2-(3-{3-[3-(4-cyanobenzyl)-3H-imidazol-4-yl]-propyl}-5-methyl-5-naphthalen-1-yl-2,4-dioxo-imidazolidin-1-yl)-acetylamino]-4-methylsulfanyl-butyric acid]	< 20 µM
0.001 µM	> 10 µM	CSCCC(NC(=O)CN1C(=O)N(CCCn2ccnc2)C(=O)C1(C)c1cccc2ccccc12)C(=O)O (stereo not drawn) [Compound 14, 2-{2-[3-(3-imidazol-1-yl-propyl)-5-methyl-5-naphthalen-1-yl-2,4-dioxo-imidazolidin-1-yl]-acetylamino}-4-methylsulfanyl-butyric acid]	< 20 µM

Reference: US6384061B1, “Hydantoin compounds and methods related thereto” (LG Chemical Ltd., priority 2000, dated 2002)
